Data: patent publication US20150232856A1, “TELOMERASE INHIBITORS FOR USE IN THERAPY” (AGENCY FOR SCIENCE, TECHNOLOGY AND RESEARCH, priority 2012, published 2015)

Test system: NFκB signalling
Test: NFκB signalling immunoblot in telomerase null VA13 cells
Format: cell-based, human
Details: 2 μM MST-312 24 hrs, then 10 ng/ml TNFα time course (FIG. 12A)
Procedure: VA13 cells were treated with 2 μM MST-312 or DMSO for 24 hrs followed by stimulation with 10 ng/ml TNFα for the indicated durations.
A. Phosphorylated and total amounts of proteins were analysed by immunoblotting for the indicated proteins over the time course.
Total protein was extracted with Totex buffer (20 mM Hepes at pH 7.9, 0.35 M NaCl, 20% glycerol, 1% NP-40, 1 mM MgCl2, 0.5 mM EDTA, 0.1 mM EGTA, 50 mM NaF and 0.3 mM NaVO3) containing a mixture of protease inhibitors (Roche). Immunoblotting was performed with specific antibodies and visualized using ECL western blotting detection kit (Amersham Bioscience).

O=C(Nc1cccc(NC(=O)c2cccc(O)c2O)c1)c1cccc(O)c1O [MST-312, N,N′-1,3-Phenylenebis-[2,3-dihydroxy-benzamide]]
p65 phosphorylation or IκBα degradation: No changes
